# From ChEMBL document CHEMBL1139387, “Fragment-based discovery of the pyrazol-4-yl urea (AT9283), a multitargeted kinase inhibitor with potent aurora kinase activity” (J Med Chem, 2009)
# Assays:
# Aurora kinase B = Aurora kinase B (Homo sapiens, UniProt Q96GD4); assay: Inhibition of Aurora B
# [1] = target: Cyclin-dependent kinase 1/cyclin B1 (Homo sapiens, UniProt P06493); assay: Inhibition of CDK1/Cyclin B; format: protein-complex assay
# HCT-116 [2] = assay: Cytotoxicity against human HCT116 cells assessed as distinct polyploidy phenotype after 72 hrs; format: functional
# [3] = target: T1, Serine/threonine-protein kinase 17A (Homo sapiens, UniProt Q9UEE5); assay: Inhibition of DRAK1
# T1 sequence (Q9UEE5 whole entry): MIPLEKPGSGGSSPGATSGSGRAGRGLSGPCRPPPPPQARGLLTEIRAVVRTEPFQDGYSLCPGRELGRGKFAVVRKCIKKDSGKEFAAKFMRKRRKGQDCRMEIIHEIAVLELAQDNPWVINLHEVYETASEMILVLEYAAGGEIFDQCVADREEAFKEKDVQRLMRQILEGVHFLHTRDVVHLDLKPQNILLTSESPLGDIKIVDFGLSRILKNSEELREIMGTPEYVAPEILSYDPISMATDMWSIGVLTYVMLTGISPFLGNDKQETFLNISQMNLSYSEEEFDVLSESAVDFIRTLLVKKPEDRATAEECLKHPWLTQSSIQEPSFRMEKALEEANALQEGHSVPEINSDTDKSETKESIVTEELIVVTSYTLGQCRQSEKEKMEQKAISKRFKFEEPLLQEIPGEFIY
# [4] = AUC (0 to t) in BALB/c mouse bearing human HCT116 cells at 20 mg/kg, ip; format: ADME, organism-based, HCT-116; set-up: dose 20 mg/kg, route intraperitoneal; conditions: in vivo
# [5] = Cmax in BALB/c mouse bearing human HCT116 cells at 5 mg/kg, iv; format: ADME, organism-based, HCT-116; set-up: dose 5 mg/kg, route intravenous; conditions: in vivo
# [6] = Oral bioavailability in BALB/c mouse bearing human HCT116 cells at 10 mg/kg; format: ADME, organism-based, HCT-116; conditions: in vivo
# [7] = target: Glycogen synthase kinase-3 beta (Homo sapiens, UniProt P49841); assay: Inhibition of GSK3-beta
# Chain of Glycogen synthase kinase-3 beta (P49841 whole entry): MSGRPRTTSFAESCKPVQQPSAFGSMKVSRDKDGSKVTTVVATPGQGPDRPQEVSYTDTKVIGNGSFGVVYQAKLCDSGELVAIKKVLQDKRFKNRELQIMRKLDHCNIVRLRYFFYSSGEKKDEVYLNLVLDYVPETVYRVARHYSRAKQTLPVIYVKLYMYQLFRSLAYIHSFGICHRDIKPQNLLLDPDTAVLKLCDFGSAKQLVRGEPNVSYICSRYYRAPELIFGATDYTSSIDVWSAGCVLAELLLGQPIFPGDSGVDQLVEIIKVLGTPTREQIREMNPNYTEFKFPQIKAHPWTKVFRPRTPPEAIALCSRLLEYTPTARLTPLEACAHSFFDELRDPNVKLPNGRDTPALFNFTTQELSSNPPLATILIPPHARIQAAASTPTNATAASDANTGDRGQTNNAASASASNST
# [8] = Half life in human HCT116 cells xenografted BALB/c mouse tumor at 10 mg/kg, iv; format: ADME, organism-based, HCT-116; set-up: dose 10 mg/kg, route intravenous
# [9] = Solubility at pH 7.0; format: physicochemical; conditions: buffer
# Cytochrome P450 2C19 = Cytochrome P450 2C19 (Homo sapiens, UniProt P33261); assay: Inhibition of CYP2C19; format: ADME
# Chain of Cytochrome P450 2C19 (P33261 whole entry): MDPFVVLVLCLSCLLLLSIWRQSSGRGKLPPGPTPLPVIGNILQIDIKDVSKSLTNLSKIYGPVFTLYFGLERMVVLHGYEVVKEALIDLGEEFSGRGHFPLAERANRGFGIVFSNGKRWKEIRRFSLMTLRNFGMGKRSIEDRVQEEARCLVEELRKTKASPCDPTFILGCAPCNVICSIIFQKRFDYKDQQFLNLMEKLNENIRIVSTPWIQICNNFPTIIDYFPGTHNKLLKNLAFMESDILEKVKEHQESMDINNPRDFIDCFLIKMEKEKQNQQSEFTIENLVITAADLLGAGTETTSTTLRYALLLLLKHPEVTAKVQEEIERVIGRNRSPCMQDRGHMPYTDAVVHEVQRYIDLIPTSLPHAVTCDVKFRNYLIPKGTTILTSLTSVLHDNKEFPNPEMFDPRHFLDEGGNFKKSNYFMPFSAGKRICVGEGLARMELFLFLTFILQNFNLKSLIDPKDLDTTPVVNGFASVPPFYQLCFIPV
# [10] = Bioavailability in BALB/c mouse bearing human HCT116 cells at 20 mg/kg, ip; format: ADME, organism-based, HCT-116; conditions: in vivo
# Cytochrome P450 1A2 = target: T2, Cytochrome P450 1A2 (Homo sapiens, UniProt P05177); assay: Inhibition of CYP1A2; format: ADME
# T2 sequence (P05177 whole entry): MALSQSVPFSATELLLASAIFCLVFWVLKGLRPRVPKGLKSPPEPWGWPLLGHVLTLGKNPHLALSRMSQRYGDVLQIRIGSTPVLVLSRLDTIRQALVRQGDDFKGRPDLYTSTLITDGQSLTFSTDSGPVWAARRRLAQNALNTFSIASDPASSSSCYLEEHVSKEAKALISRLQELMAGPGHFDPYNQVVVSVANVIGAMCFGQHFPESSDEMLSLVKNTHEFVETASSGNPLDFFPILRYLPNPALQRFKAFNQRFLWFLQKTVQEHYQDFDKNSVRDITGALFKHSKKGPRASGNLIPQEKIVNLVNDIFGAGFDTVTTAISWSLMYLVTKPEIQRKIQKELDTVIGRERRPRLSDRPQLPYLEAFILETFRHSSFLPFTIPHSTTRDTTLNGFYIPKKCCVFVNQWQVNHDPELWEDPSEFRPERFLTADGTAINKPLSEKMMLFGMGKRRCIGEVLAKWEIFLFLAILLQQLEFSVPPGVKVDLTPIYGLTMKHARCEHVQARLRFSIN
# [11] = Solubility at pH 5.5; format: physicochemical; conditions: buffer
# [12] = Half life in BALB/c mouse plasma bearing human HCT116 cells at 5 mg/kg, iv; format: ADME, organism-based, HCT-116; set-up: dose 5 mg/kg, route intravenous
# [13] = Clearance in BALB/c mouse bearing human HCT116 cells at 5 mg/kg, iv; format: ADME, organism-based, HCT-116; set-up: dose 5 mg/kg, route intravenous; conditions: in vivo, read-out: MLC
# [14] = Cmax in BALB/c mouse bearing human HCT116 cells at 20 mg/kg, ip; format: ADME, organism-based, HCT-116; set-up: dose 20 mg/kg, route intraperitoneal; conditions: in vivo
# [15] = Cmax in BALB/c mouse bearing human HCT116 cells at 10 mg/kg, po; format: ADME, organism-based, HCT-116; set-up: dose 10 mg/kg, route oral; conditions: in vivo
# [16] = target: Vascular endothelial growth factor receptor 3 (Homo sapiens, UniProt P35916); assay: Inhibition of VEGFR3
# Chain of Vascular endothelial growth factor receptor 3 (P35916 whole entry): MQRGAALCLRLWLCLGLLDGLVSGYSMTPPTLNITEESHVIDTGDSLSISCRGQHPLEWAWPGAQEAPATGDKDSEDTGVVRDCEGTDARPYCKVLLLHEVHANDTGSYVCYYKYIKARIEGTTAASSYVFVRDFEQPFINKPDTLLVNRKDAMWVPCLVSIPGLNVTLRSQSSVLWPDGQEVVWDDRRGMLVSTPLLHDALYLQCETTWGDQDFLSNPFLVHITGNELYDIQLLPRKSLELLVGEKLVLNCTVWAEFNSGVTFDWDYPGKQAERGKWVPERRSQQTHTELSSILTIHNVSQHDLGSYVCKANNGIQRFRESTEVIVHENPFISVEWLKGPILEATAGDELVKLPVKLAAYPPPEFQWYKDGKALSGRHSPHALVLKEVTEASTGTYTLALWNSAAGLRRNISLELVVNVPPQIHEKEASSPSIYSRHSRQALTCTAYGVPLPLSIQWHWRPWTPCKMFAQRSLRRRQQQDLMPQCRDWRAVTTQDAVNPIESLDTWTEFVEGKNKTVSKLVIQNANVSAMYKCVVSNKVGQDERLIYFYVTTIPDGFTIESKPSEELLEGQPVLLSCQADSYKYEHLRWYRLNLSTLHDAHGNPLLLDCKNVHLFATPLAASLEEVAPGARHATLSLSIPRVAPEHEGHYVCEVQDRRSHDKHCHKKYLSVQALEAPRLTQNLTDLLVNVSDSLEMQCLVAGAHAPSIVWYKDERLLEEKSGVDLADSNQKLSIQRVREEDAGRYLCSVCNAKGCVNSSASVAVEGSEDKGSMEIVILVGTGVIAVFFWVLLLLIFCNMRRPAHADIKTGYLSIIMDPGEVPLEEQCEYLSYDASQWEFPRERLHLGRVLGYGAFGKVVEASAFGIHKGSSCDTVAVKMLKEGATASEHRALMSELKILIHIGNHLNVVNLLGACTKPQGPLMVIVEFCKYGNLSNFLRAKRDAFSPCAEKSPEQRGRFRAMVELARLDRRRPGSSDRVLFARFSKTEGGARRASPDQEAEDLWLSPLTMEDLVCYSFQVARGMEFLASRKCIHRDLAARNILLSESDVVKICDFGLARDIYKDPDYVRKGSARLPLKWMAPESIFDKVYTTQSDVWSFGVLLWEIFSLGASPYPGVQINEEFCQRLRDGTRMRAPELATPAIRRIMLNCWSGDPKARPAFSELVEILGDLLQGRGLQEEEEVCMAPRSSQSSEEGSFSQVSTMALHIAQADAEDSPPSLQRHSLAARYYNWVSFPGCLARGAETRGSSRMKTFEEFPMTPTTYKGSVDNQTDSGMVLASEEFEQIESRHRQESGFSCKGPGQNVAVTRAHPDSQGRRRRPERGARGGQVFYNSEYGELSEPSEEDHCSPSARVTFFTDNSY
# Cytochrome P450 2D6 = Cytochrome P450 2D6 (Homo sapiens, UniProt P10635); assay: Inhibition of CYP2D6; format: ADME
# Chain of Cytochrome P450 2D6 (P10635 whole entry): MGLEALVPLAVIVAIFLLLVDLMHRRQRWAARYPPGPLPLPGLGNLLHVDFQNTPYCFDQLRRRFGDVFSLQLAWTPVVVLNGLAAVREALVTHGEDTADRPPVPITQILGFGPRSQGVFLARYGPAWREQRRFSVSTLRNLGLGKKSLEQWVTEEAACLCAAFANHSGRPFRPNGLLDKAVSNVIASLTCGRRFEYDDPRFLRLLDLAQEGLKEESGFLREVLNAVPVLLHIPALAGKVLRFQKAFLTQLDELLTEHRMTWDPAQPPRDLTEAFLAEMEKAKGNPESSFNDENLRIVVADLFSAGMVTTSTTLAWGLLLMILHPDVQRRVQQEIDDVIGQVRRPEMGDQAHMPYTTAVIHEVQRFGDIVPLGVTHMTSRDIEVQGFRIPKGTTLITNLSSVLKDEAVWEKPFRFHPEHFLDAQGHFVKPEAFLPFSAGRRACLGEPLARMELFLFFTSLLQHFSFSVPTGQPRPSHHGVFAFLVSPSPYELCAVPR
# [17] = Lipophilicity, log D at pH 7.4; format: physicochemical; conditions: buffer
# [18] = AUC (0 to t) in BALB/c mouse bearing human HCT116 cells at 10 mg/kg, po; format: ADME, organism-based, HCT-116; set-up: dose 10 mg/kg, route oral; conditions: in vivo
# [19] = Volume of distribution at steady state in BALB/c mouse bearing human HCT116 cells at 5 mg/kg, iv; format: ADME, organism-based, HCT-116; set-up: dose 5 mg/kg, route intravenous; conditions: in vivo, read-out: Vdss
# Cytochrome P450 2C9 = Cytochrome P450 2C9 (Homo sapiens, UniProt P11712); assay: Inhibition of CYP2C9; format: ADME
# HCT-116 [20] = assay: Cytotoxicity against human HCT116 cells assessed as number of colonies after 10 to 14 days by colony forming assay; format: functional, cell-based
# [21] = target: Tyrosine-protein kinase Yes (Homo sapiens, UniProt P07947); assay: Inhibition of Yes
# Chain of Tyrosine-protein kinase Yes (P07947 whole entry): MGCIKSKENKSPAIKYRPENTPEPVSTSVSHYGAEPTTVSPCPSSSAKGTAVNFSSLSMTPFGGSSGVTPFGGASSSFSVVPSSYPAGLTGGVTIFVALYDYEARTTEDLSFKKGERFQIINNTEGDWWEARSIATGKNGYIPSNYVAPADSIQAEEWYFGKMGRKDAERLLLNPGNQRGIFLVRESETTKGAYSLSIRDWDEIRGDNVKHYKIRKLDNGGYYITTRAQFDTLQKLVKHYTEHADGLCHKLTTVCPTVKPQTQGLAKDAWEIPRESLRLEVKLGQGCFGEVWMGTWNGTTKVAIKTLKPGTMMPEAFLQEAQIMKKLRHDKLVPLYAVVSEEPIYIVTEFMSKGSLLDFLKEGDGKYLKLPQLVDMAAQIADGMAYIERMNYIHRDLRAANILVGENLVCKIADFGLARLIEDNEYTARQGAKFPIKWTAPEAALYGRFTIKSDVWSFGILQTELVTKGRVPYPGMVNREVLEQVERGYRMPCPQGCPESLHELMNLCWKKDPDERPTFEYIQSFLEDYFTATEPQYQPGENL
# [22] = AUC (0 to t) in BALB/c mouse bearing human HCT116 cells at 5 mg/kg, iv; format: ADME, organism-based, HCT-116; set-up: dose 5 mg/kg, route intravenous; conditions: in vivo
# Aurora kinase A = target: T3, Aurora kinase A (Homo sapiens, UniProt O14965)
# T3 sequence (O14965 whole entry): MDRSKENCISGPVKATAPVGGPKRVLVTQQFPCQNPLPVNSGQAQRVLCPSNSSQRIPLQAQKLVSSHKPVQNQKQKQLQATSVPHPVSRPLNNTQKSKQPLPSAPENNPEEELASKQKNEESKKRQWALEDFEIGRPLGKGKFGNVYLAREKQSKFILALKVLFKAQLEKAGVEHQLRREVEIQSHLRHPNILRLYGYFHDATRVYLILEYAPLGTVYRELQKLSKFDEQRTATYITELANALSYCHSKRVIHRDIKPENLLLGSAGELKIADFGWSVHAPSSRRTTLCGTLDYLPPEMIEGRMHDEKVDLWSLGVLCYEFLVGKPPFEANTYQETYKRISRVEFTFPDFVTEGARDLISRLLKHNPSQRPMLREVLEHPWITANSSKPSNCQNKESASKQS
# [23] = target: Cyclin-dependent kinase 2 (Homo sapiens, UniProt P24941); assay: Inhibition of CDK2/Cyclin A
# in vitro = conditions: mouse, plasma
# [24] = Plasma concentration in mouse assessed per kg body weight; format: ADME, organism-based
# [25] = Oral bioavailability in mouse; format: ADME, organism-based; conditions: in vivo
# Mus musculus [26] = assay: Toxicity in BALB/c mouse bearing human HCT116 cells assessed as body weight at 20 mg/kg, ip relative to starting weight; format: organism-based, HCT-116; set-up: dose 20 mg/kg, route intraperitoneal; conditions: in vivo
# HCT-116 [27] = assay: Antitumor activity against human HCT116 cells xenografted in BALB/c mouse at 15 mg/kg, ip after 16 days relative to control; format: functional; conditions: route intraperitoneal
# HCT-116 [28] = assay: Antitumor activity against human HCT116 cells xenografted in BALB/c mouse at 20 mg/kg, ip after 16 days relative to control; format: functional; conditions: route intraperitoneal
# Mus musculus [29] = assay: Toxicity in BALB/c mouse bearing human HCT116 cells assessed as body weight at 15 mg/kg, ip relative to starting weight; format: organism-based, HCT-116; set-up: dose 15 mg/kg, route intraperitoneal; conditions: in vivo
# [30] = target: Cyclin-dependent kinase 1/cyclin B1 (Homo sapiens) (UniProt P06493+P14635); conditions: 1000 uM
# Chain of Cyclin-dependent kinase 1/cyclin B1 (Homo sapiens) (P06493 whole entry, looked up): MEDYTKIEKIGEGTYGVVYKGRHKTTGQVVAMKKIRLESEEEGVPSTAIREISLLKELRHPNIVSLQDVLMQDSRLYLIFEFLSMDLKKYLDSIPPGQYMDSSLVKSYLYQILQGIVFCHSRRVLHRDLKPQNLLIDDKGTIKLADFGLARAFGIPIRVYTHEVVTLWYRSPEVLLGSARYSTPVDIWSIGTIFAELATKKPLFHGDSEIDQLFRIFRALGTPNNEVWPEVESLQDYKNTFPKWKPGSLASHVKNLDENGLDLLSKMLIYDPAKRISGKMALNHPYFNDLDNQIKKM
# Chain of Cyclin-dependent kinase 1/cyclin B1 (Homo sapiens) (P14635 whole entry, looked up): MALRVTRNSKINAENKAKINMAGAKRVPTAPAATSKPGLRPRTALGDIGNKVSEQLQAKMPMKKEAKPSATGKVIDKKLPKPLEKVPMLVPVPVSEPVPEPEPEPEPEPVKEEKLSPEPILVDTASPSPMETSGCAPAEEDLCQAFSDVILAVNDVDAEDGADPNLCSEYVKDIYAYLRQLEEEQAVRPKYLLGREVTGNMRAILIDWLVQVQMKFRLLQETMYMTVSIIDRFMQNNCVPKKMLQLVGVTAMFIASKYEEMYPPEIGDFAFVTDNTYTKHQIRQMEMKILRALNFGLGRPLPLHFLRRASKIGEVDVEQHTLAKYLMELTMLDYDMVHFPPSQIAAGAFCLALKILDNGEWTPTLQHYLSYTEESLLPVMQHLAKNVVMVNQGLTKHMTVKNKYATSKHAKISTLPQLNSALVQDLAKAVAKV
# Chain of Cyclin-dependent kinase 1/cyclin B1 (P06493 whole entry): as the sequence (P06493 whole entry, looked up) above
# Chain of Cyclin-dependent kinase 1/cyclin B1 (P14635 whole entry, further chain): as the sequence (P14635 whole entry, looked up) above
# Chain of Aurora kinase B (Q96GD4 whole entry): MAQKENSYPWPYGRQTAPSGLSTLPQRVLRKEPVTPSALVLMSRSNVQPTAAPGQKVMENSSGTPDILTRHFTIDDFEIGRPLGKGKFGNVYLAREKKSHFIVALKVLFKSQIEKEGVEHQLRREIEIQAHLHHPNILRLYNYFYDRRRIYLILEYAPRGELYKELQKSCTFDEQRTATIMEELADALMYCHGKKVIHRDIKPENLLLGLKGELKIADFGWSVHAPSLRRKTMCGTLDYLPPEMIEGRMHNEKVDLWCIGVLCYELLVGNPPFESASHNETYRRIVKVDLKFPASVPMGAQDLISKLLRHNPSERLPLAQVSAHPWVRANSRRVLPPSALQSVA
smiles,measurement,setting,value
O=C(Nc1c[nH]nc1-c1nc2ccccc2[nH]1)c1ccccc1,IC50,Aurora kinase B,0.18 µM
same,IC50,[1],0.23 µM
same,Activity,HCT-116 [2],3 µM
O=C(Nc1c[nH]nc1-c1nc2ccc(CN3CCOCC3)cc2[nH]1)NC1CC1 [AT-9283],IC50,[3],0.01 µM
same,AUC(0-t),[4],7.7 µM·h
same,Cmax,[5],4.9 µM
same,bioavailability,[6],24%
same,IC50,[7],0.001 µM
same,half-life,[8],2.5 h
same,solubility,[9],2000 µg/mL
same,IC50,Cytochrome P450 2C19,> 10 µM
same,bioavailability,[10],100%
same,IC50,Cytochrome P450 1A2,> 10 µM
same,solubility,[11],13000 µg/mL
same,half-life,[12],0.5 h
same,clearance,[13],114 mL/min/kg
same,Cmax,[14],8.4 µM
same,Cmax,[15],0.45 µM
same,IC50,[16],0.001 µM
same,IC50,Cytochrome P450 2D6,> 10 µM
same,logD,[17],2.1
same,AUC(0-t),[18],0.91 µM·h
same,Vd,[19],3.9 L/kg
same,IC50,Cytochrome P450 2C9,> 10 µM
same,IC50,HCT-116 [20],0.012 µM
same,IC50,[21],0.001 µM
same,AUC(0-t),[22],1.9 µM·h
O=C(Nc1ccccc1F)Nc1c[nH]nc1-c1nc2cc(CN3CCOCC3)ccc2[nH]1,IC50,Aurora kinase B,0.01 µM
same,IC50,Aurora kinase A,0.0028 µM
same,IC50,[1],1.1 µM
same,IC50,[23],0.23 µM
same,Activity,HCT-116 [2],0.1 µM
O=C(Nc1ccccc1)Nc1c[nH]nc1-c1nc2cc(CN3CCOCC3)ccc2[nH]1,IC50,Aurora kinase B,0.054 µM
same,IC50,[1],5.5 µM
same,IC50,[23],1.8 µM
same,Activity,HCT-116 [2],0.3 µM
same,fraction unbound,in vitro,0.047
O=C(Nc1c[nH]nc1-c1nc2ccc(CN3CCOCC3)cc2[nH]1)c1ccc(F)cc1,clearance,[24],43 mL/min/kg
same,IC50,Aurora kinase B,0.075 µM
same,IC50,[1],1.5 µM
same,IC50,[23],0.53 µM
same,bioavailability,[25],26%
same,Activity,HCT-116 [2],0.3 µM
same,fraction unbound,in vitro,0.005
Cl.O=C(Nc1c[nH]nc1-c1nc2cc(CN3CCOCC3)ccc2[nH]1)NC1CC1,Activity,Mus musculus [26],Non-toxic
same,T/C,HCT-116 [27],33%
same,T/C,HCT-116 [28],24%
same,Activity,Mus musculus [29],Non-toxic
Cc1cc(Nc2cc(N3CCN(C)CC3)nc(Sc3ccc(NC(=O)C4CC4)cc3)n2)n[nH]1 [TOZASERTIB],Activity,HCT-116 [2],0.03 µM
same,IC50,HCT-116 [20],0.024 µM
O=C(Nc1cccnc1)Nc1c[nH]nc1-c1nc2cc(CN3CCOCC3)ccc2[nH]1,IC50,Aurora kinase B,0.024 µM
same,IC50,Aurora kinase A,0.013 µM
same,IC50,[1],0.29 µM
same,IC50,[23],0.16 µM
same,Activity,HCT-116 [2],1 µM
CC(=O)Nc1c[nH]nc1-c1nc2ccccc2[nH]1,IC50,Aurora kinase B,0.51 µM
same,IC50,Aurora kinase A,0.07 µM
same,IC50,[1],3.2 µM
same,IC50,[23],0.99 µM
O=C(Nc1c[nH]nc1-c1nc2cc(CN3CCOCC3)ccc2[nH]1)NC1CCCCC1,IC50,Aurora kinase B,0.0052 µM
same,IC50,Aurora kinase A,0.0057 µM
same,IC50,[1],2.9 µM
same,IC50,[23],1.2 µM
same,Activity,HCT-116 [2],0.1 µM
O=C(Nc1c[nH]nc1-c1nc2cc(CN3CCOCC3)ccc2[nH]1)c1ccccc1,IC50,Aurora kinase B,0.015 µM
same,IC50,Aurora kinase A,0.0035 µM
same,IC50,[1],0.34 µM
same,IC50,[23],0.14 µM
same,Activity,HCT-116 [2],0.1 µM
O=C(Nc1c[nH]nc1-c1nc2cc(CN3CCOCC3)ccc2[nH]1)Nc1c(F)cccc1F,IC50,Aurora kinase B,0.0026 µM
same,IC50,Aurora kinase A,0.0015 µM
same,IC50,[1],0.29 µM
same,IC50,[23],0.16 µM
same,logD,[17],3.1
same,Activity,HCT-116 [2],0.03 µM
same,fraction unbound,in vitro,0.169
same,IC50,HCT-116 [20],0.017 µM
c1ccc2[nH]c(-c3cc[nH]n3)nc2c1,IC50,Aurora kinase B,6.5 µM
same,inhibition,[30],49%
same,IC50,[23],28 µM
O=C(Nc1c[nH]nc1-c1nc2cc(CN3CCOCC3)ccc2[nH]1)NC1CCOCC1,IC50,Aurora kinase B,0.01 µM
same,IC50,Aurora kinase A,0.026 µM
same,IC50,[1],17 µM
same,Activity,HCT-116 [2],1 µM
